Data on one molecule can be found in publication PMC9664070, “The anticonvulsant phytocannabinoids CBGVA and CBDVA inhibit recombinant T-type channels” (Frontiers in Pharmacology, 2022).

Data set [1] relates to hyperthermia-induced seizures. Set-up: method as in earlier work. The following applies: Scn1a+/- mice, ref Anderson et al., 2019, 2021a, 2021b; cited from earlier work.
In the next data set the target is T1, Cav3.1 (Homo sapiens, UniProt O43497).
T1 construct: expressed in transfected cells; host or cells: HEK293 Flp-In T-REx
Put plainly: Whole-cell voltage-clamp electrophysiology in HEK293 Flp-In T-REx cells. The data set is classed as cell-based. The protocol: All whole-cell voltage-clamp recordings from HEK293 Flp-In T-REx cells stably transfected with human Cav3.1, Cav 3.2 and Cav 3.3 were performed at room temperature. At least 24 h prior to experiments, cells were detached from flasks using trypsin/EDTA and plated into 10 cm sterile tissue culture dishes containing 10 ml of supplemented DMEM and 10–15 glass coverslips (12 mm diameter, ProScitech, QLD, Australia). Culture dishes were then kept overnight in same conditions as flasks to allow cells to adhere to coverslips. They were then transferred to a 30°C/5% CO2 incubator to inhibit cell proliferation until ready to be used for electrophysiology experiments. At this stage, channel expression was induced with tetracycline (2 μg/ml, Sigma-Aldrich) 8–24 h prior to recording cells.
External recording solutions contained (in mM): 114 CsCl, 5 BaCl2, 1 MgCl2, 10 HEPES, 10 glucose, adjusted to pH 7.4 with CsOH. The internal patch pipette solution contained (in mM): 126.5 CsMeSO4, 2 MgCl2, 11 EGTA, 10 HEPES adjusted to pH 7.3 with CsOH. Internal solution was supplemented with 0.6 mM GTP and 2 mM ATP and mixed thoroughly just before use. Liquid junction potentials for the above solutions were calculated before experiments using pClamp 10 software and corrected during experiments. Compounds were prepared daily from 30 mM DMSO stocks and diluted into an external solution just before use. Compounds were then applied rapidly and locally to the cells using a custom-built gravity-driven micro-perfusion system ([Feng et al., 2003]). […] Currents were elicited from a holding potential of -100 mV and were measured by conventional whole-cell patch clamp techniques using an Axopatch 200B amplifier in combination with Clampex 9.2 software. (Molecular Devices, Sunnyvale, CA). After establishing whole cell configuration, cellular capacitance was minimised using the amplifier’s built-in analogue compensation. Series resistance was kept to <10 MΩ and was compensated to at least 85% in all experiments. All data were digitised at 10 kHz with a Digidata 1,320 interface (Molecular Devices) and filtered at 1 kHz (8-pole Bessel filter). Raw and online leak-subtracted data were both collected simultaneously, P/N4 leak subtraction was performed using opposite polarity and after the protocol sweep.
For tonic inhibition of T-type currents, membrane potential was stepped from −100 mV to −30 mV for 200 ms and then allowed to recover for 12 s (1 sweep). A minimum of 10 sweeps were collected under vehicle control external perfusion to allow for control peak current to equilibrate. The drug was then continuously perfused, and sweeps were recorded until no further inhibition was seen (minimum of 3 sweeps with the same amplitude). In current-voltage relation studies, the membrane potential was held at −100 mV and cells were depolarised from −70 to 50 mV in 10 mV increments. For steady-state inactivation studies, a 3.6 s conditioning pre-pulse of various magnitudes (initial holding at −110 mV) was followed by a depolarising pulse to −30 mV. Individual sweeps were separated by 12 s to permit recovery from inactivation between conditioning pulses. The duration of the test pulse was typically 20 ms, and the current amplitude obtained from each test pulse was normalised to that observed at the holding potential of −100 mV.
The effect of CBGVA and CBDVA (5 µM each) on slow inactivation was tested using a 2-pulse voltage protocol as described in Bladen et al., (2021). Briefly, cells expressing Cav3.1 were initially depolarised with a 200 ms test pulse from -120 mV to −30 mV to generate peak current (P1) and followed by a 10 s pre-conditioning pulse to −80 mV to reverse fast inactivation. Cells were further depolarised with another 200 ms test pulse from −120 to −30 mV (P2) (Figure 2 inset).
THC and CBD cause substantial frequency-dependent inhibition of Cav3.2 and Nav1.8 channels, respectively ([Ross et al., 2008]; [Bladen et al., 2021]; [Zhang and Bean, 2021]). […]

For another data set, the system named is diacylglycerol lipase. Set-up: method as in de Petrocellis et al., 2011. The following applies: ref de Petrocellis et al., 2011; cited from earlier work.
The subject of data set [2] is dorsal root ganglion neurons. Set-up: method as in Straiker et al., 2021. The following applies: ref Straiker et al., 2021; cited from earlier work.
The target in the next data set is T2, GPR55 (Homo sapiens, UniProt Q9Y2T6).
T2 construct: expressed in transfected cells; host or cells: HEK 293
The data set can be described thus: Alphascreen ERK phosphorylation assay, antagonism of ML-186-induced ERK phosphorylation. Type of data set: cell-based. The following applies: in the presence of EC80 of ML-186 (0.45 µM), HEK 293 GPR55 cells. As to the method:
Unless otherwise stated, five independent experiments were performed for each condition, with each experiment conducted in duplicate. For the calcium assay, change in fluorescence by 10 mM Ca in the presence of drugs was normalised to change in fluorescence caused by 10 mM Ca in the presence of vehicle only to allow for comparison. In the Alphascreen assay, results were normalised to EC80 of ML-186 after subtraction of basal ERK phosphorylation (presence of a vehicle and 0.2% DMSO) to allow for easy comparison between phytocannabinoid activities. We fitted all concentration-response curves to a 4-parameter sigmoidal inhibitory response curve in GraphPad Prism (Version 6 GraphPad Software Inc., CA, United States) to derive IC50 and Emax values. All statistical analyses were conducted with GraphPad Prism. Two-tailed, unpaired t-tests were used to compare two data points and one-way ANOVA for more than two data points with Tukey post-hoc analysis. p-values < 0.05 were considered statistically significant.
Background: Bead proximity is the source of the signal in Alpha formats.

For data set [3], the system named is autaptic hippocampal neurons. Set-up: method as in Straiker et al., 2021. The following applies: ref Straiker et al., 2021; cited from earlier work.
The nature of data set [4]: Plasma and brain exposure at anticonvulsant doses in mice (literature). Type of data set: in vivo. The following applies: from peak plasma concentration and brain-plasma ratio.
For data set [5] the following is noted: ref Anderson et al., cited from earlier work.

A word on the IC50: it is the concentration at which inhibition is half-maximal.

T1 sequence (O43497 whole entry): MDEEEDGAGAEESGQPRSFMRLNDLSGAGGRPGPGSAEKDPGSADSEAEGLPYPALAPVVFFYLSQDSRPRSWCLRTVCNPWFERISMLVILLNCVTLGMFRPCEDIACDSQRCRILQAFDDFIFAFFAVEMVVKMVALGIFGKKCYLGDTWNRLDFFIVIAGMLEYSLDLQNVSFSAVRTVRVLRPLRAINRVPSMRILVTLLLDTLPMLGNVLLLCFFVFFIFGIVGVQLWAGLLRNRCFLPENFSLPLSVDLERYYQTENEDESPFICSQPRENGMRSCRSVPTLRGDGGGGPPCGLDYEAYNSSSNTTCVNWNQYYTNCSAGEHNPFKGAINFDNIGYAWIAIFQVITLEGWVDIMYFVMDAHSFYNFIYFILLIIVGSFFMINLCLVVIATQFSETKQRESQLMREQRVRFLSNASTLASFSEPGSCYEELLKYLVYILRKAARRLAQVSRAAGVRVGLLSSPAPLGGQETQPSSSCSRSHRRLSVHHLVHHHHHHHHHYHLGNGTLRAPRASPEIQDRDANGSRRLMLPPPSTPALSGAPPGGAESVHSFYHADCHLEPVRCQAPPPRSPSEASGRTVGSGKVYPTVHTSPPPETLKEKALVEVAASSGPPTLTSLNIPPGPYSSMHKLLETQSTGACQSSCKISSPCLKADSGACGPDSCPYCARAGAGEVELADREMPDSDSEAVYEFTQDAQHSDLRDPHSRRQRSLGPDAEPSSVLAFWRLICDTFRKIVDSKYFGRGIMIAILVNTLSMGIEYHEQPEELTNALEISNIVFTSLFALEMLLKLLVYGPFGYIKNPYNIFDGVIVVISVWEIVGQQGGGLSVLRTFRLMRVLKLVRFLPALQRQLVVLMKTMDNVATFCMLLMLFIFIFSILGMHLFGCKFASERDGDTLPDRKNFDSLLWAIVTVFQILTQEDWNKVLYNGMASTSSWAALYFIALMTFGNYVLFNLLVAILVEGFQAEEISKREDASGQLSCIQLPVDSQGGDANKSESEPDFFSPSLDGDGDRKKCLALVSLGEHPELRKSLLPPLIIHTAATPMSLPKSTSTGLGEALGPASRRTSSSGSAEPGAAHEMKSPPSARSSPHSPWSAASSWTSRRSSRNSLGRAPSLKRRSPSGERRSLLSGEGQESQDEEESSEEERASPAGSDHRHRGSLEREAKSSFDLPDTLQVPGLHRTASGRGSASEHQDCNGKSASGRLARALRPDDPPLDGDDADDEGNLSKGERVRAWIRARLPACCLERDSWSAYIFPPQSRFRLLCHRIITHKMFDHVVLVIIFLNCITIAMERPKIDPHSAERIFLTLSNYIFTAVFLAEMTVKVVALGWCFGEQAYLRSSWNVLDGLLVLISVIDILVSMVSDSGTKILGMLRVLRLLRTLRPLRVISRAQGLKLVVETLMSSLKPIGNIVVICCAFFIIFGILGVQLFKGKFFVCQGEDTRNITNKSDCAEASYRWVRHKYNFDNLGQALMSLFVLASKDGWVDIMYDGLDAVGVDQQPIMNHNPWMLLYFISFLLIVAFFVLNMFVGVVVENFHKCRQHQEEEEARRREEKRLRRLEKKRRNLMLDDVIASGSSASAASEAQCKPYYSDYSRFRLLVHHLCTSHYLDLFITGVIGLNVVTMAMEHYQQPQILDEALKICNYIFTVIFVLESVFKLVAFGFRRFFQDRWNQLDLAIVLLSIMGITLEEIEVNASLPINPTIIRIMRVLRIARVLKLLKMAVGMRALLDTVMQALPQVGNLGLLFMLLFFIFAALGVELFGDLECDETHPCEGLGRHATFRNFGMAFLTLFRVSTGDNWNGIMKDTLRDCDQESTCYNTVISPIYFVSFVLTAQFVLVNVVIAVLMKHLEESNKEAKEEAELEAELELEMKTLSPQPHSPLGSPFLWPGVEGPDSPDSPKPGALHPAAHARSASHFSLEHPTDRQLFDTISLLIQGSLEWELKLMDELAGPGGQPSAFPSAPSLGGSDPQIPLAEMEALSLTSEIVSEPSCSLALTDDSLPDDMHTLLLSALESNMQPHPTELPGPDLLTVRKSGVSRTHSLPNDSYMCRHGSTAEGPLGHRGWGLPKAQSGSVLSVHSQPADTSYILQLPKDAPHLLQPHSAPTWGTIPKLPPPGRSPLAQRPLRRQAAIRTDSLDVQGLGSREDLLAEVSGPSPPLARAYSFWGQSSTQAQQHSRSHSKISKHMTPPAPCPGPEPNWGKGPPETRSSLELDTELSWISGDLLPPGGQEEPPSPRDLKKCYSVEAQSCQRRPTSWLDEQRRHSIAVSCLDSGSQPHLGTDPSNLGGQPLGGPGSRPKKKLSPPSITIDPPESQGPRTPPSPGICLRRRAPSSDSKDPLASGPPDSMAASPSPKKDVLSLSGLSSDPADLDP
T2 sequence (Q9Y2T6 whole entry, species assumed): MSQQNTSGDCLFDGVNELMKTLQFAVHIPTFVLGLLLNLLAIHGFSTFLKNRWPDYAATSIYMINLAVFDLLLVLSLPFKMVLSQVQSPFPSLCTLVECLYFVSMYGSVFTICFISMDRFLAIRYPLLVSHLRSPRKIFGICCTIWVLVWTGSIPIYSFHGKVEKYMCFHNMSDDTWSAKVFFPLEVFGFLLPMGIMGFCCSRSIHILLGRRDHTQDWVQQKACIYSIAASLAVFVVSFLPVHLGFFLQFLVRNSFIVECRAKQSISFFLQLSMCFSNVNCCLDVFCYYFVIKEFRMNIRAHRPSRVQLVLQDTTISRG

In the case of `C=C(C)[C@@H]1CCC(C)=C[C@H]1c1c(O)cc(CCC)c(C(=O)O)c1O` [CBDVA, cannabidivarinic acid], the “effect against hyperthermia-induced seizures” value in data set [1] is on record as “anticonvulsant”. Further, on Cav3.1 (5 µM compound), the “V0.5 of voltage dependence of Cav3.1 activation” value is reported as −54.7 ± 1.2 mV. In addition, the “half-inactivation (V0.5), steady-state inactivation of Cav3.1” value at Cav3.1 (5 µM compound) is given as −70.9 ± 0.5 mV. Besides, the “Cav3.1 relative current at 50th action potential, % of first” value stood at 90 ± 1% on Cav3.1 (5 µM, 0.4 Hz stimulation); 93 ± 1% on Cav3.1 (5 µM, 0.8 Hz stimulation); 83 ± 1% on Cav3.1 (5 µM, 2.0 Hz stimulation). The “inhibition of Cav3.1 peak current, second test pulse (P2), slow inactivated state” value at Cav3.1 (5 µM, 2-pulse voltage protocol, after 10 s pre-conditioning pulse to −80 mV) came to 45 ± 5%. Besides, at Cav3.1 (5 µM, 2-pulse voltage protocol, before slow inactivation), the “inhibition of Cav3.1 peak current, first test pulse (P1)” value is listed as 35 ± 5%. The 50% inhibitory concentration (IC50) stood at 7 µM on Cav3.1 (patch clamp, step −100 mV to −30 mV every 12 s, read-out: IC50, tonic inhibition of Cav3.1 current amplitude) and 10 µM at GPR55. Besides, the “inhibition of diacylglycerol lipase” value with diacylglycerol lipase is recorded as “inhibit the endocannabinoid synthetic enzyme diacylglycerol lipase at a relatively high concentration”. In data set [2], the “effect on calcium responses” value is listed as “did not alter calcium responses”. In data set [3], the “effect on excitatory neurotransmission” value is “did not alter excitatory neurotransmission”. The expected brain concentration in data set [4] was 5 µM. The Peak plasma concentration in data set [5] (anticonvulsant doses in mice, 2021b) was about 239 µM. Also, the brain-plasma ratio in data set [5] (2019) was 2%.
